Assay results published in ChEMBL document CHEMBL6153119, “Target Identification with Live-Cell Photoaffinity Labeling and Mechanism of Action Elucidation of ARN23765, a Highly Potent CFTR Corrector” (J Med Chem, 2025).
Each block holds one compound with its values, some of them ahead of it. Calls of active or inactive are those of the source. The rule behind the calls is not given here.

Tests used:
Format in all cases: cell-based
[1] = system: Cystic fibrosis transmembrane conductance regulator (Homo sapiens), P13569 [F508del]; assay: Corrector activity at mature CFTR F508del mutant (unknown origin) expressed in human CFBE41o- cells assessed as restoration of CFTR level at 27 degreeC at 1 uM preincubated with ARN23765 followed by compound addition measured after 2 hrs by pull down assay
Sequence of Cystic fibrosis transmembrane conductance regulator (Homo sapiens), P13569 [F508del] (P13569 as listed by the source): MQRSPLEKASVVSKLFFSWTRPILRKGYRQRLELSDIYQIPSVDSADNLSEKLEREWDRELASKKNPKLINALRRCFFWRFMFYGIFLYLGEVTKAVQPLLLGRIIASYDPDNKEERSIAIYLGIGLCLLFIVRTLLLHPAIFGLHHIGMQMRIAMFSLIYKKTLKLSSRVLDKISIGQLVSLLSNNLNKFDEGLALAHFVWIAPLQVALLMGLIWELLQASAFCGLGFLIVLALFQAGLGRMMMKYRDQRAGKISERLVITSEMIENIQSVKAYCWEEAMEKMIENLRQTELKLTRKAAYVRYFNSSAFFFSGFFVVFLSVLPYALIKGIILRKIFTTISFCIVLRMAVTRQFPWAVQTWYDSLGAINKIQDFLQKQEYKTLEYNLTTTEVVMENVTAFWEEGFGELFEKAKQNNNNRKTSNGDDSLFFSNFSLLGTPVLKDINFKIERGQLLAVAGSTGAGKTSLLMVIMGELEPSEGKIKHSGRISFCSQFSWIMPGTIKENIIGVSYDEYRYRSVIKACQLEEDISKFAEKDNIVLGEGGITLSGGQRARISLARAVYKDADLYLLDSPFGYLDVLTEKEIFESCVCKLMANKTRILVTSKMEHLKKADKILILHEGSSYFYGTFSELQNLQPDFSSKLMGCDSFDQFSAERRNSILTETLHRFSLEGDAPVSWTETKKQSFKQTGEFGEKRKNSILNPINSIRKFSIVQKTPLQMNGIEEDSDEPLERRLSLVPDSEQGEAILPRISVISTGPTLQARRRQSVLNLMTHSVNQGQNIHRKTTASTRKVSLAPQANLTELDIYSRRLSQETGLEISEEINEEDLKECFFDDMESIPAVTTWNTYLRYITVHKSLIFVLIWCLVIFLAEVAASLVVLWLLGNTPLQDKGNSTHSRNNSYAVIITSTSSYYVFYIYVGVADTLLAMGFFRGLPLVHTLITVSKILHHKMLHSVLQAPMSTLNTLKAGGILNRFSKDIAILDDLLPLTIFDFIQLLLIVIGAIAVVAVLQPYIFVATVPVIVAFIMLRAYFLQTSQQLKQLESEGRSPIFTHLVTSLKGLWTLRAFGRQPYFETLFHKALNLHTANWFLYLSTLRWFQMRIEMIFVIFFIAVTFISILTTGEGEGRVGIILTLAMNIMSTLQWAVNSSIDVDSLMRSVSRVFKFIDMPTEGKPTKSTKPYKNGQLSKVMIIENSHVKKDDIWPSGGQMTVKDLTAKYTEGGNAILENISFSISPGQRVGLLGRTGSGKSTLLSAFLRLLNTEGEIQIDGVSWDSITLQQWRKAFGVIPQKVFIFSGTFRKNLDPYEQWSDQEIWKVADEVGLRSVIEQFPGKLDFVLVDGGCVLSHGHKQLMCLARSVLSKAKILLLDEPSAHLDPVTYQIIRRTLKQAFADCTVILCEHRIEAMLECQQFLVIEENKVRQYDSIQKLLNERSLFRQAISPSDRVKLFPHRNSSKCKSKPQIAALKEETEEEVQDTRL

[2] = biological target: Cystic fibrosis transmembrane conductance regulator (Homo sapiens) (UniProt P13569); assay: Corrector activity at wild-type CFTR (unknown origin) expressed in human CFBE41o- cells assessed as restoration of CFTR level at 1 uM preincubated with ARN23765 followed by compound addition measured after 2 hrs by pull down assay
Sequence of Cystic fibrosis transmembrane conductance regulator (Homo sapiens) (P13569 whole entry, looked up, the tested form may be a part): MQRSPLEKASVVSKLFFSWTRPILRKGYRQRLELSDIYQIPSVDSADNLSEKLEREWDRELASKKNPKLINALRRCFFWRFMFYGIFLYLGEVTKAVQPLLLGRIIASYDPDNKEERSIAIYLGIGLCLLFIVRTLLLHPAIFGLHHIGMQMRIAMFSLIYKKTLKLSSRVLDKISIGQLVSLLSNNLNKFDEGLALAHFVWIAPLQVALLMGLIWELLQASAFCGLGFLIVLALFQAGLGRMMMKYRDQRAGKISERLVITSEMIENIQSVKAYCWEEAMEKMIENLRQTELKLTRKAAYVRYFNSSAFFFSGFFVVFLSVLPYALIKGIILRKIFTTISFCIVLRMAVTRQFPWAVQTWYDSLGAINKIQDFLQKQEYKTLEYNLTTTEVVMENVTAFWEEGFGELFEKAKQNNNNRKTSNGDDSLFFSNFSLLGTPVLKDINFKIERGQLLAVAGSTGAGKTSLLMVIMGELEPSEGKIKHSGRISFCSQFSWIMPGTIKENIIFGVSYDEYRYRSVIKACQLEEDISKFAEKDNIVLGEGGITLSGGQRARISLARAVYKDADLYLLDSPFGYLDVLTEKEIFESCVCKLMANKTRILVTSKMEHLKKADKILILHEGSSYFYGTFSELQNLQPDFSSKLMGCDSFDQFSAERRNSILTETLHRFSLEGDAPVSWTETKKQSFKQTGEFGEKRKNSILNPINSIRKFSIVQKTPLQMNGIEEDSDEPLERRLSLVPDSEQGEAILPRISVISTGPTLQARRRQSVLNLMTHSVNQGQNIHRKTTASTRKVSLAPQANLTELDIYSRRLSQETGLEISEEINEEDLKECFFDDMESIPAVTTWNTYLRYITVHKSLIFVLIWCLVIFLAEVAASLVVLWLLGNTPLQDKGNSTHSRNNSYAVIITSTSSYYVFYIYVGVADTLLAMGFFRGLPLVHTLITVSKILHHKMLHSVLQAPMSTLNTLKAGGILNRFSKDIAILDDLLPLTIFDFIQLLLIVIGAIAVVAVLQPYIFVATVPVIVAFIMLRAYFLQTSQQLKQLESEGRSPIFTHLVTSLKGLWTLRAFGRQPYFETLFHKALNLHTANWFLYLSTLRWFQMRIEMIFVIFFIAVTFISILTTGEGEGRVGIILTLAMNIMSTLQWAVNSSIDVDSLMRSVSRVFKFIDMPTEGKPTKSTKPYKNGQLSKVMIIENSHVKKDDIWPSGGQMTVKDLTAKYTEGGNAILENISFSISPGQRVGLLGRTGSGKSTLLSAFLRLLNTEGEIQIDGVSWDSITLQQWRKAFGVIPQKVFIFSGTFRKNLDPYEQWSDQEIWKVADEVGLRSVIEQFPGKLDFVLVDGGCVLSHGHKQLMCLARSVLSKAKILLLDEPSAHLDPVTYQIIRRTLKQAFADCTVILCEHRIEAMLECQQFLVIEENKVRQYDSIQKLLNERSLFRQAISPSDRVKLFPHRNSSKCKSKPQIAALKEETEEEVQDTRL

[3] = biological target: Cystic fibrosis transmembrane conductance regulator (Homo sapiens) (UniProt P13569); assay: Corrector activity at CFTR in human CFBE41o- cells harboring CFTR-/- assessed as restoration of CFTR level at 1 uM preincubated with ARN23765 followed by compound addition measured after 2 hrs by pull down assay
[4] = system: Cystic fibrosis transmembrane conductance regulator (Homo sapiens), P13569 [F508del]; assay: Corrector activity at immature CFTR F508del mutant (unknown origin) expressed in human CFBE41o- cells assessed as restoration of CFTR level at 27 degreeC at 1 uM preincubated with ARN23765 followed by compound addition measured after 2 hrs by pull down assay
[5] = system: Cystic fibrosis transmembrane conductance regulator (Homo sapiens), P13569 [F508del]; assay: Corrector activity at CFTR F508del mutant (unknown origin) expressed in human CFBE41o- cells assessed as restoration of CFTR level at 1 uM preincubated with ARN23765 followed by compound addition measured after 2 hrs by pull down assay
[6] = system: Cystic fibrosis transmembrane conductance regulator (Homo sapiens), P13569 [F508del]; assay: Corrector activity at CFTR F508del mutant (unknown origin) expressed in human CFBE41o- cells co-expressing HS-YFP assessed as maximum restoration of channel function incubated for 24 hrs by florescence based analysis (reference value: 3.0)
[7] = system: Cystic fibrosis transmembrane conductance regulator (Homo sapiens), P13569 [F508del/R1070W]; assay: Corrector activity at CFTR F508del/R1070W mutant (unknown origin) transfected in HEK293 cells assessed as increase in protein maturation at 3 uM incubated for 24 hrs by Western blot analysis
Sequence of Cystic fibrosis transmembrane conductance regulator (Homo sapiens), P13569 [F508del/R1070W] (P13569 as listed by the source): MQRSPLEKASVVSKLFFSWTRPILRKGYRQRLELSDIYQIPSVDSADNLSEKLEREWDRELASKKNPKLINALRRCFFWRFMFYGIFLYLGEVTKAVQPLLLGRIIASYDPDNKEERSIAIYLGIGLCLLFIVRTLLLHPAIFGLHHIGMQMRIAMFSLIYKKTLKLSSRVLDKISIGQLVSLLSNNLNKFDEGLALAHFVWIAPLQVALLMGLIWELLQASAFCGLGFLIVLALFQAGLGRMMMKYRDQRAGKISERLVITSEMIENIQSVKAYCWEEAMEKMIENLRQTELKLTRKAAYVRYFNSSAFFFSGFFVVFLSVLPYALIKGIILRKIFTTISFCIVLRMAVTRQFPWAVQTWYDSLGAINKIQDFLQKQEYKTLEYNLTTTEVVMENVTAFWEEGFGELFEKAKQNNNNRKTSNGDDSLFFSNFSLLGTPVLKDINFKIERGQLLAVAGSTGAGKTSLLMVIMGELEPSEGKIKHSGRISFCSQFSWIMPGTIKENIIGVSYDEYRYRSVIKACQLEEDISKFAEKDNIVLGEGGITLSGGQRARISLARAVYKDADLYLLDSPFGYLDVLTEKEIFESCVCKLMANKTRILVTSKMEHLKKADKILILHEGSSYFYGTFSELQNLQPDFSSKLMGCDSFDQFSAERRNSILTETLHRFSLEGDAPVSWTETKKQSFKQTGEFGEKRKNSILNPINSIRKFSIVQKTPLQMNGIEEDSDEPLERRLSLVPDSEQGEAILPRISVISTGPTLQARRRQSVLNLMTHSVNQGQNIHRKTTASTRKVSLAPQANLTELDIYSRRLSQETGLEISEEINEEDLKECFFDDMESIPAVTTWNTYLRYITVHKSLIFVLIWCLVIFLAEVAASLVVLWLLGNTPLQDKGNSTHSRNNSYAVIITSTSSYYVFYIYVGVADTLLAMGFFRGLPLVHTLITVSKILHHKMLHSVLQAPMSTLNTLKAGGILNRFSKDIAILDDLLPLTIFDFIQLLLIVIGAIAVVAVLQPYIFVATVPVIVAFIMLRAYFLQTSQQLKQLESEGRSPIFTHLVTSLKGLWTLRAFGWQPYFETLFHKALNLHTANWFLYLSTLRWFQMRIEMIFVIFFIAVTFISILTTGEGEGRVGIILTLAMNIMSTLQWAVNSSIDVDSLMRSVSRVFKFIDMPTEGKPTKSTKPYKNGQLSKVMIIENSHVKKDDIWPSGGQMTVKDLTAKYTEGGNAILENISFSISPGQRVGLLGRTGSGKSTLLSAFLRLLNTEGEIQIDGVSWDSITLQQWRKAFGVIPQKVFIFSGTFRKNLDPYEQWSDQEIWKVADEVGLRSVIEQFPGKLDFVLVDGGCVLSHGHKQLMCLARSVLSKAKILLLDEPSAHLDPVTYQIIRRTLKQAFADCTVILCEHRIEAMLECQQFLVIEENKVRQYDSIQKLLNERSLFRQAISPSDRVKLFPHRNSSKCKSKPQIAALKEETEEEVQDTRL

[8] = system: Cystic fibrosis transmembrane conductance regulator (Homo sapiens), P13569 [F508del/R1070W]; assay: Corrector activity at CFTR F508del/R1070W mutant (unknown origin) transfected in HEK293 cells assessed as increase in […] at 3 uM incubated for 24 hrs by Western blot analysis
[9] = system: Cystic fibrosis transmembrane conductance regulator (Homo sapiens), P13569 [R170G]; assay: Corrector activity at CFTR R170G mutant (unknown origin) transfected in HEK293 cells assessed as increase in protein maturation at 10 nM incubated for 24 hrs by Western blot analysis
[10] = system: Cystic fibrosis transmembrane conductance regulator (Homo sapiens), P13569 [F508del/R74A]; assay: Corrector activity at CFTR F508del/R74A mutant (unknown origin) transfected in HEK293 cells assessed as increase in protein maturation at 10 nM incubated for 24 hrs by Western blot analysis
[11] = system: Cystic fibrosis transmembrane conductance regulator (Homo sapiens), P13569 [R170G]; assay: Corrector activity at CFTR R170G mutant (unknown origin) transfected in HEK293 cells assessed as increase in […] at 10 nM incubated for 24 hrs by Western blot analysis
[12] = biological target: Cystic fibrosis transmembrane conductance regulator (Homo sapiens) (UniProt P13569); assay: Corrector activity at wild-type CFTR (unknown origin) expressed in human CFBE41o- cells assessed as restoration of CFTR level at 25 uM incubated for 30 mins by pull down assay
[13] = biological target: Cystic fibrosis transmembrane conductance regulator (Homo sapiens) (UniProt P13569); assay: Corrector activity at CFTR (unknown origin) transfected in HEK293 cells harboring CFTR fragment containing del-R assessed as increase in expression of CFTR level at 10 nM incubated for 24 hrs by Western blot analysis
[14] = biological target: Cystic fibrosis transmembrane conductance regulator (Homo sapiens) (UniProt P13569); assay: Corrector activity at CFTR (unknown origin) transfected in HEK293 cells harboring CFTR fragment containing MSD2-NBD2 assessed as increase in expression of CFTR level at 10 nM incubated for 24 hrs by Western blot analysis
[15] = biological target: Cystic fibrosis transmembrane conductance regulator (Homo sapiens) (UniProt P13569); assay: Corrector activity at CFTR (unknown origin) transfected in HEK293 cells harboring CFTR fragment containing MSD1 assessed as increase in half life of CFTR MSD1 at 10 nM incubated for 24 hrs by Western blot analysis
[16] = system: Cystic fibrosis transmembrane conductance regulator (Homo sapiens), P13569 [F508del/K68I]; assay: Corrector activity at CFTR F508del/K68I mutant (unknown origin) transfected in HEK293 cells assessed as increase in protein maturation at 10 nM incubated for 24 hrs by Western blot analysis
[17] = biological target: Cystic fibrosis transmembrane conductance regulator (Homo sapiens) (UniProt P13569); assay: Corrector activity at CFTR (unknown origin) transfected in HEK293 cells harboring CFTR fragment containing MSD1 assessed as increase in expression of CFTR level at 10 nM incubated for 24 hrs by Western blot analysis
[18] = system: Cystic fibrosis transmembrane conductance regulator (Homo sapiens), P13569 [F508del]; assay: Corrector activity at CFTR F508del mutant (unknown origin) expressed in human CFBE41o- cells assessed as restoration of CFTR level at 25 uM incubated for 30 mins by pull down assay
HEK293 = assay: Corrector activity at CFTR F508del/A198Y mutant (unknown origin) transfected in HEK293 cells assessed as increase in protein maturation at 10 nM incubated for 24 hrs by Western blot analysis; conditions: Homo sapiens
[19] = system: Cystic fibrosis transmembrane conductance regulator (Homo sapiens), P13569 [F508del/F81A]; assay: Corrector activity at CFTR F508del/F81A mutant (unknown origin) transfected in HEK293 cells assessed as increase in protein maturation at 10 nM incubated for 24 hrs by Western blot analysis
[20] = biological target: Cystic fibrosis transmembrane conductance regulator (Homo sapiens) (UniProt P13569); assay: Corrector activity at CFTR (unknown origin) transfected in HEK293 cells harboring CFTR fragment containing MSD2 assessed as increase in expression of CFTR level at 10 nM incubated for 24 hrs by Western blot analysis
[21] = system: Cystic fibrosis transmembrane conductance regulator (Homo sapiens), P13569 [F508del/S364F]; assay: Corrector activity at CFTR F508del/S364F mutant (unknown origin) transfected in HEK293 cells assessed as increase in protein maturation at 10 nM incubated for 24 hrs by Western blot analysis
[22] = system: Cystic fibrosis transmembrane conductance regulator (Homo sapiens), P13569 [F508del/N71I]; assay: Corrector activity at CFTR F508del/N71I mutant (unknown origin) transfected in HEK293 cells assessed as increase in protein maturation at 10 nM incubated for 24 hrs by Western blot analysis
[23] = biological target: Cystic fibrosis transmembrane conductance regulator (Homo sapiens) (UniProt P13569); assay: Corrector activity at CFTR (unknown origin) transfected in HEK293 cells harboring CFTR fragment containing MSD2 assessed as effect on CFTR MSD2 stability at 10 nM incubated for 24 hrs by Western blot analysis
[24] = system: Cystic fibrosis transmembrane conductance regulator (Homo sapiens), P13569 [F508del/W361A]; assay: Corrector activity at CFTR F508del/W361A mutant (unknown origin) transfected in HEK293 cells assessed as increase in protein maturation at 10 nM incubated for 24 hrs by Western blot analysis
[25] = biological target: Cystic fibrosis transmembrane conductance regulator (Homo sapiens) (UniProt P13569); assay: Corrector activity at CFTR (unknown origin) transfected in HEK293 cells harboring CFTR fragment containing MSD1-NBD1 assessed as increase in expression of CFTR level at 10 nM incubated for 24 hrs by Western blot analysis
[26] = biological target: Cystic fibrosis transmembrane conductance regulator (Homo sapiens) (UniProt P13569); assay: Corrector activity at CFTR (unknown origin) transfected in HEK293 cells harboring CFTR fragment containing MSD1-NBD1-R assessed as increase in expression of CFTR level at 10 nM incubated for 24 hrs by Western blot analysis
[27] = system: Cystic fibrosis transmembrane conductance regulator (Homo sapiens), P13569 [F508del/R1070W]; assay: Corrector activity at CFTR F508del/R1070W mutant (unknown origin) transfected in HEK293 cells assessed as increase in protein maturation at 10 nM incubated for 24 hrs by Western blot analysis
[28] = system: Cystic fibrosis transmembrane conductance regulator (Homo sapiens), P13569 [F508del/R1070W]; assay: Corrector activity at CFTR F508del/R1070W mutant (unknown origin) transfected in HEK293 cells assessed as increase in […] at 10 nM incubated for 24 hrs by Western blot analysis
[29] = biological target: Cystic fibrosis transmembrane conductance regulator (Homo sapiens) (UniProt P13569); assay: Corrector activity at wild-type CFTR (unknown origin) expressed in human CFBE41o- cells assessed as restoration of CFTR level at 2.5 uM with UV light irradiation followed by CuAAC implementation by pull down assay

Activity [1]: Active
Activity [2]: inactive
Activity [3]: inactive
Activity [4]: Active
Activity [5]: inactive
SMILES: C[C@H]1NC(=O)N[C@H]1CCCCCC(=O)NCCOCCOCCOCCn1cc(-c2ccc(O[C@H]3CCCc4c(C(F)(F)F)nn(-c5cccc(C(=O)N(C)c6ccc(C7(C(F)(F)F)N=N7)cc6)c5)c43)cc2)nn1

Activity [1]: Active
Activity [2]: inactive
Activity [6]: 2.8
Activity [3]: inactive
Activity [4]: Active
Activity [5]: inactive
SMILES: C[C@H]1NC(=O)N[C@H]1CCCCCC(=O)NCCOCCOCCOCCn1cc(CCC2(CCNC(=O)c3ccc(O[C@H]4CCCc5c(C(F)(F)F)nn(-c6cccc(C(=O)N(C)c7ccc8c(c7)OC(F)(F)O8)c6)c54)cc3)N=N2)nn1

Activity [7]: Active
Activity [8]: Active
SMILES: CC(C)(CO)c1cc2cc(NC(=O)C3(c4ccc5c(c4)OC(F)(F)O5)CC3)c(F)cc2n1C[C@@H](O)CO

Activity [9]: Active
Activity [11]: Active
Activity [12]: inactive
Activity [13]: Active
Activity [14]: inactive
Activity [15]: Active
Activity [16]: Active
Activity [17]: Active
Activity [18]: inactive
Activity [20]: inactive
Activity [22]: Active
Activity [23]: inactive
Activity [25]: Active
Activity [26]: Active
Activity [27]: Active
Activity [28]: Active
SMILES: CN(C(=O)c1cccc(-n2nc(C(F)(F)F)c3c2[C@@H](Oc2ccc(C(=O)O)cc2)CCC3)c1)c1ccc2c(c1)OC(F)(F)O2
Activity [10]: Not active; Slightly Reduced Protein Maturation
Activity (HEK293): Not active; Protein Maturation Markedly Reduced Or Abolished
Activity [19]: Not active; Protein Maturation Markedly Reduced Or Abolished
Activity [21]: Not active; Slightly Reduced Protein Maturation
Activity [24]: Not active; Protein Maturation Markedly Reduced Or Abolished

Activity [29]: inactive
SMILES: C#Cc1ccc(O[C@H]2CCCc3c(C(F)(F)F)nn(-c4cccc(C(=O)N(C)c5ccc(C6(C(F)(F)F)N=N6)cc5)c4)c32)cc1
